Laboratory results: patent publication US20190388381A1, “METHODS OF INHIBITING CISD PROTEIN-PLP COMPLEX FORMATION” (priority 2018, published 2019)
“Also recorded” adds a separate entry of the source.

How the values were obtained:
[1] = biological target: T1, mitoNEET (Homo sapiens, UniProt Q9NZ45); experiment: Thermal shift analysis (SYPRO Orange) of mitoNEET; format: binding; details: changing concentrations of nucleotide
T1 sequence (Q9NZ45 33-108 limits assumed): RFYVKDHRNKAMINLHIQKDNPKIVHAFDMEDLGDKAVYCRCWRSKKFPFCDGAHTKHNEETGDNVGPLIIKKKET

[2] = biological target: T1, mitoNEET; experiment: Competitive spectrophotometric assay of mitoNEET⋅PLP complex formation; format: biochemical; details: for Effect on mitoNEET⋅PLP complex formation: signal at λ=380 nm (unbound PLP) with increasing compound concentration
[3] = biological target: T2, PLP⋅mitoNEET complex (Homo sapiens, UniProt Q9NZ45); experiment: Reaction of candidate amino acid substrates with the PLP⋅mitoNEET complex, followed by spectrophotometry; format: biochemical; details: internal aldimine at λ=410 nm, signal at λ=330 nm, over 5000 sec
T2 sequence (Q9NZ45 33-108 limits assumed): T1 sequence (Q9NZ45 33-108 limits assumed)
Excerpt: After PLP binding to the protein, the next step in many PLP-catalyzed enzymatic reactions is the formation of an external aldimine with one of several amino acid substrate such as cysteine, serine, alanine, or aspartate. Subsequently, an amazing diversity of chemistry can occur using this versatile coenzyme including transamination, racemization, and α,β-elimination. L-cysteine was selected as a first candidate substrate considering the previously shown reactivity of mitoNEET cysteine residues in the formation of mixed disulfide bonds. L-cysteine (0.5 mM) was added to the PLP⋅mitoNEET complex and the reaction was followed by spectrophotometry over 5000 sec.

[4] = biological target: T3, mitoNEET (Homo sapiens, UniProt Q9NZ45); experiment: Proteomic analysis of mitoNEET lysine residues modified by PLP; format: biochemical; details: 2.0 molar equivalents of PLP, 20 minutes, PBS pH 7.5
T3 construct: Considering the presence of ten lysine residues in the soluble portion of mitoNEET
T3 sequence (Q9NZ45 32-108 limits assumed): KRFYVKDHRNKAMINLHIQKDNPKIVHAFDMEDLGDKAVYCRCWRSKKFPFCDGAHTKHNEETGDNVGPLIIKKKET
Method: Considering the presence of ten lysine residues in the soluble portion of mitoNEET, non-specific binding of PLP was a concern (PDB code 3EW0). Therefore, mitoNEET was treated with 2.0 molar equivalents of PLP over 20 minutes in phosphate buffered saline (PBS) at pH 7.5 and the reacted protein was analyzed by proteomics. […] Next, the product(s) were degraded by tryptic digest, separated by liquid chromatography, analyzed by tandem mass spectrometry, and the data deconvoluted by proteomic analysis (courtesy of Indiana University Medical School Proteomics Core).

[5] = biological target: T1, mitoNEET; experiment: Spectroscopic kinetics of modification of mitoNEET by PLP; format: biochemical; details: in contrast to PLP; data not shown
Excerpt: The initial discovery was made that CISD proteins bind PLP at a specific lysine residue that is in close proximity to the [2Fe-2S] cluster. PLP modifies the active site lysine residue of PLP-dependent enzymes forming the internal aldimine. In mitoNEET, PLP selectively modifies Lys55. While Lys55 was hypothesized to play a role in the reduction potential and stability of the [2Fe-2S] cluster in mitoNEET, its role as the binding site of PLP is novel to this work. MitoNEET was previously not known or classified as a PLP-dependent enzyme. Referring to FIG. 2, the formation of the mitoNEET⋅PLP and NAF-1⋅PLP complexes can be followed spectroscopically by the accumulation of a signal at λ=435 nm which is consistent with the ketoenamine tautomer and the attenuation of the signal at λ=380 nm which signifies the free PLP molecule. Concurrently with the increase of signal at λ=435 nm, an increase at λ=280 nm is also observed, but the chemical species contributing to this signal is currently unknown. In contrast to PLP, no reactivity of mitoNEET towards the non-phosphorylated pyridoxal (data not shown) was observed. […] An analogous lysine (Lys78) on NAF-1 is the analogous site for that protein.

**Q.** Which “Effect on mitoNEET thermal stability” value [1] does the source give for `Nc1ncnc2c1ncn2[C@@H]1O[C@H](COP(=O)(O)OP(=O)(O)O)[C@@H](O)[C@H]1O` [ADP, adenosine diphosphate] here?
**A.** do not significantly affect the thermal shift profile

**Q.** For `Nc1ncnc2c1ncn2[C@@H]1O[C@H](COP(=O)(O)O)[C@@H](O)[C@H]1O` [AMP, adenosine monophosphate], which “Effect on mitoNEET thermal stability” value [1] is on record?
**A.** do not significantly affect the thermal shift profile

**Q.** And the “Effect on mitoNEET⋅PLP complex formation” value [2]?
**A.** no binding at Lys55; also recorded: does not correspond with an increase in the signal at λ=380 nm

**Q.** How did the “Reaction with the PLP⋅mitoNEET complex” value [3] turn out when `N[C@H](CS)C(=O)O` [D-cysteine] was run?
**A.** also reacts with the PLP⋅mitoNEET complex (albeit at a slower rate)

**Q.** With `N[C@@H](CS)C(=O)O` [L-cysteine] as the compound, how does the “Reaction with the PLP⋅mitoNEET complex” value [3] read?
**A.** degradation of the internal aldimine

**Q.** For `N[C@@H](COP(=O)(O)O)C(=O)O` [L-phosphoserine], which “Reaction with the PLP⋅mitoNEET complex” value [3] is on record?
**A.** did not react

**Q.** With `N[C@@H](CO)C(=O)O` [L-serine] as the compound, how does the “Reaction with the PLP⋅mitoNEET complex” value [3] read?
**A.** did not react

**Q.** For `Cc1ncc(COP(=O)(O)O)c(C=O)c1O` [PLP, pyridoxal-5′-phosphate], which “Percent Modified, lysine residue position 55” value [4] is on record?
**A.** 48.1%

**Q.** And the “Percent Modified, lysine residue position 68” value [4]?
**A.** 7.6%

**Q.** And the “Percent Modified, lysine residue position 79” value [4]?
**A.** 6.1%

**Q.** And the “Percent Modified, lysine residue position 89” value [4]?
**A.** 2.5%

**Q.** And the “Percent Modified, lysine residue position 104” value [4]?
**A.** 1.5%

**Q.** Which results are given for `NS(=O)(=O)c1cc(C(=O)O)c(NCc2ccco2)cc1Cl` [furosemide]?
**A.** Formation of mitoNEET⋅PLP complex after pre-treatment ([2]; signal at 435 nm, pre-treatment with compound): lack of formation of mitoNEET⋅PLP complex; Effect on mitoNEET⋅PLP complex formation [2]: competitive binding; also recorded: prohibits the mitoNEET⋅PLP complex formation; Effect on mitoNEET⋅PLP complex formation ([2]; listed as Furosemide): block the formation of the mitoNEET⋅PLP complex in a concentration dependent manner

**Q.** With `Cc1ncc(CO)c(C=O)c1O` [pyridoxal] as the compound, how does the “Reactivity of mitoNEET towards compound” value [5] read?
**A.** no reactivity
